The record followed here is PubChem BioAssay (NCI).

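1) Cells in 96-well plates. 2) Compound, 48 h, 5 concentrations. 3) Linear interpolation between surrounding doses. 4) Unreached endpoint = highest concentration. TGI denotes the concentration required for complete inhibition of growth.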 Bounds are passed on as bounds.

Some test systems named below: CCRF-CEM leukemia; HCT-15 colon; HL-60(TB) leukemia; HS 578T breast; K-562 leukemia; KM12 colon; MDA-MB-231 breast; MDA-N; MOLT-4 leukemia; NCI/ADR-RES ovarian; OVCAR-3 ovarian; OVCAR-4 ovarian; OVCAR-5 ovarian; PC-3 prostate; SK-MEL-28 melanoma; SR leukemia; SW-620 colon; UACC-257 melanoma; UACC-62 melanoma; UO-31 renal.
Test in all cases: inhibition of tumour cell growth, NCI panel, 48 h

For `O=C1CSSCC(=O)Nc2ccccc2N1`, the TGI in the assay with CCRF-CEM leukemia, in the assay on HCT-15 colon, in the assay with HL-60(TB) leukemia, in the assay on HS 578T breast, in the assay with K-562 leukemia and in the assay on KM12 colon was greater than 100 µM throughout. Moreover, the TGI with MDA-MB-231 breast, in the assay with MDA-N, in the assay on MOLT-4 leukemia, with NCI/ADR-RES ovarian, with OVCAR-3 ovarian and in the assay with OVCAR-4 ovarian was greater than 100 µM each time. The TGI in the assay on OVCAR-5 ovarian, in the assay on PC-3 prostate, with SK-MEL-28 melanoma, with SR leukemia, with SW-620 colon and in the assay on UACC-257 melanoma was greater than 100 µM each time. Besides, the TGI in the assay with UACC-62 melanoma and in the assay on UO-31 renal was greater than 100 µM in each case.
As to `COC(=O)C1=C(O)C(C(=O)OC)[C@]2(O)[C@H](C(=O)OC)[C@H]1C[C@@H](c1ccc(Cl)cc1)[C@H]2C(=O)OC` (stereo not given in full), the TGI in the assay with CCRF-CEM leukemia is greater than 100 µM; in the assay on HCT-15 colon it was 47.7 µM; with HL-60(TB) leukemia, 12.9 µM; in the assay on HS 578T breast, 30.2 µM; with K-562 leukemia it was greater than 100 µM; in the assay with KM12 colon, 46.6 µM. In addition, the TGI in the assay on MDA-MB-231 breast was 37.6 µM; in the assay with MDA-N, 22.5 µM; in the assay with MOLT-4 leukemia, greater than 100 µM; in the assay on NCI/ADR-RES ovarian, greater than 100 µM; with OVCAR-3 ovarian, 13.4 µM; in the assay on OVCAR-4 ovarian, greater than 100 µM. For the same compound, the TGI in the assay on OVCAR-5 ovarian is 40.3 µM; in the assay on PC-3 prostate it was 18.8 µM; in the assay on SK-MEL-28 melanoma, 21.4 µM; in the assay on SR leukemia, greater than 100 µM; in the assay on SW-620 colon, greater than 100 µM; in the assay on UACC-257 melanoma it was 26.5 µM. In addition, the results for the TGI in the assay with UACC-62 melanoma and in the assay on UO-31 renal were 24.9 µM and 21.4 µM, respectively.
For the compound `CN(CCC(=O)O)C1=Nc2ccc(Cl)cc2C(c2ccccc2)=[N+]([O-])C1`, the TGI in the assay with CCRF-CEM leukemia, in the assay with HCT-15 colon, in the assay with HL-60(TB) leukemia, with HS 578T breast, with K-562 leukemia and in the assay with KM12 colon was greater than 100 µM throughout. The TGI in the assay on MDA-MB-231 breast, with MDA-N, with MOLT-4 leukemia, in the assay on NCI/ADR-RES ovarian, with OVCAR-3 ovarian and with OVCAR-4 ovarian was greater than 100 µM in each case. For the same compound, the TGI in the assay with OVCAR-5 ovarian, with PC-3 prostate, with SK-MEL-28 melanoma, in the assay with SR leukemia, in the assay with SW-620 colon and in the assay with UACC-257 melanoma was greater than 100 µM in each case. Moreover, the TGI with UACC-62 melanoma and with UO-31 renal was greater than 100 µM each time.
For `COC(=O)c1cc2c(cc1CC1Cc3cc4c(cc3C1=O)CCC4)CCC2` (stereo not given), the TGI with CCRF-CEM leukemia, in the assay on HCT-15 colon, with HL-60(TB) leukemia, in the assay on HS 578T breast, in the assay with K-562 leukemia and with KM12 colon was greater than 100 µM in each case. Further, the TGI in the assay on MDA-MB-231 breast is greater than 100 µM; in the assay with MDA-N, greater than 100 µM; in the assay on MOLT-4 leukemia, 57.5 µM; in the assay on NCI/ADR-RES ovarian it was greater than 100 µM; in the assay on OVCAR-3 ovarian, greater than 100 µM; in the assay on OVCAR-4 ovarian, greater than 100 µM. For the same compound, the TGI in the assay with OVCAR-5 ovarian, with PC-3 prostate, in the assay with SK-MEL-28 melanoma, in the assay on SR leukemia, in the assay on SW-620 colon and with UACC-257 melanoma was greater than 100 µM in each case. For the same compound, the TGI in the assay on UACC-62 melanoma and in the assay with UO-31 renal was greater than 100 µM each time.
In the case of `COC1(C)CP(=O)(OC(C)C)CC(C)=C1Cl` (stereo not given), the TGI with CCRF-CEM leukemia was 15.7 µM; in the assay with HCT-15 colon it was 29.2 µM; with HL-60(TB) leukemia, 29.1 µM; in the assay with HS 578T breast it was greater than 100 µM; with K-562 leukemia it was 7.89 µM; in the assay with KM12 colon, 34 µM. Also, the TGI in the assay on MDA-MB-231 breast is 34.1 µM; with MDA-N, 47.7 µM; with MOLT-4 leukemia, greater than 100 µM; in the assay on NCI/ADR-RES ovarian, greater than 100 µM; in the assay on OVCAR-3 ovarian, 24.2 µM; in the assay with OVCAR-4 ovarian, 28.6 µM. In addition, the TGI is 39 µM in the assay with OVCAR-5 ovarian; 77.9 µM with PC-3 prostate; 61.3 µM in the assay on SK-MEL-28 melanoma; greater than 100 µM in the assay on SR leukemia; 32.4 µM in the assay with SW-620 colon; 72.1 µM with UACC-257 melanoma. Moreover, the TGI amounted to 25.6 µM in the assay with UACC-62 melanoma and 34.2 µM in the assay with UO-31 renal.
With `CCCCCCCCCCCCN(CC(O)C(O)C(OC1OC(CO)C(O)C(O)C1O)C(O)CO)C(=O)CCCCCCCCCCC` (stereo not given), the TGI in the assay on CCRF-CEM leukemia is 65.1 µM; in the assay with HCT-15 colon, 35.4 µM; with HL-60(TB) leukemia it was greater than 100 µM; in the assay on HS 578T breast, 82.7 µM; in the assay on K-562 leukemia, 35.5 µM; in the assay on KM12 colon, 36.7 µM. The TGI was 42.7 µM with MDA-MB-231 breast; 38.2 µM in the assay with MDA-N; 50.1 µM in the assay on MOLT-4 leukemia; 49.7 µM with NCI/ADR-RES ovarian; 49.2 µM in the assay on OVCAR-3 ovarian; 44.5 µM in the assay on OVCAR-4 ovarian. The TGI in the assay with OVCAR-5 ovarian was greater than 100 µM; with PC-3 prostate it was 52.9 µM; with SK-MEL-28 melanoma, 31.9 µM; in the assay on SR leukemia it was 57.8 µM; in the assay on SW-620 colon, 33.6 µM; with UACC-257 melanoma, 36.6 µM. For the same compound, the TGI with UACC-62 melanoma was determined as 38.8 µM; in the assay on UO-31 renal, 45.8 µM.
Turning to `Nc1cccnc1NCC1(CO)CCCC1`, the TGI with CCRF-CEM leukemia, in the assay on HCT-15 colon, with HL-60(TB) leukemia, in the assay with HS 578T breast, with K-562 leukemia and in the assay on KM12 colon was greater than 100 µM in each case. Besides, the TGI in the assay on MDA-MB-231 breast, in the assay with MDA-N, in the assay on MOLT-4 leukemia, in the assay on NCI/ADR-RES ovarian, with OVCAR-3 ovarian and in the assay with OVCAR-4 ovarian was greater than 100 µM throughout. In addition, the TGI in the assay with OVCAR-5 ovarian, with PC-3 prostate, with SK-MEL-28 melanoma, in the assay with SR leukemia, with SW-620 colon and in the assay on UACC-257 melanoma was greater than 100 µM throughout. Further, the TGI with UACC-62 melanoma and in the assay with UO-31 renal was greater than 100 µM in each case.
As for `CN(C)/N=C(/CC(O)(C(F)(F)F)C(F)(F)F)c1ccc([N+](=O)[O-])cc1`, the TGI with CCRF-CEM leukemia, in the assay on HCT-15 colon, with HL-60(TB) leukemia, with HS 578T breast, with K-562 leukemia and in the assay on KM12 colon was greater than 100 µM each time. Moreover, the TGI with MDA-MB-231 breast, with MDA-N, in the assay on MOLT-4 leukemia, in the assay on NCI/ADR-RES ovarian, with OVCAR-3 ovarian and in the assay on OVCAR-4 ovarian was greater than 100 µM in each case. Also, the TGI in the assay with OVCAR-5 ovarian, with PC-3 prostate, in the assay on SK-MEL-28 melanoma, in the assay with SR leukemia, in the assay on SW-620 colon and in the assay on UACC-257 melanoma was greater than 100 µM each time. Besides, the TGI with UACC-62 melanoma and in the assay on UO-31 renal was greater than 100 µM each time.
